Consider 20 compounds from patent publication US10626081B2, “Farnesoid X receptor agonists and uses thereof” (Metacrine, Inc., priority 2015, dated 2020).

As usually defined, the pEC50 is −log10 of the EC50, conventionally taken in molar units. High values mean a small EC50, low ones a large EC50.

In assay [1] the target is T1, FXR (Homo sapiens, UniProt Q96RI1).
T1 construct: expressed in transfected cells; host or cells: CV-1 cells
T1 sequence (Q96RI1 1-486): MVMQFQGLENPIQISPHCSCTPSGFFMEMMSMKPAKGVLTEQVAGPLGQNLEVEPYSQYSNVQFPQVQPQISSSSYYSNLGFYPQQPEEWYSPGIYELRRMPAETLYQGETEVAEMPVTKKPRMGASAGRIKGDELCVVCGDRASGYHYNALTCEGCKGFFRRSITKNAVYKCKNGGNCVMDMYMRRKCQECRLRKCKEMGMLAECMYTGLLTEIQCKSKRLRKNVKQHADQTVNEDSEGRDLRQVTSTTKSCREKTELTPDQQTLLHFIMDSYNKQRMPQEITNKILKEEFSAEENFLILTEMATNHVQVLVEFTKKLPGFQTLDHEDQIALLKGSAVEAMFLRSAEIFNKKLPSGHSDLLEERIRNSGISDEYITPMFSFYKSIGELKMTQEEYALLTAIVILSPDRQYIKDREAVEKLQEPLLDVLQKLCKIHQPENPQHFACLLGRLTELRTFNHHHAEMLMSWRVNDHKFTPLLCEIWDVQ
T1 sequence (P19793 1-462 partner): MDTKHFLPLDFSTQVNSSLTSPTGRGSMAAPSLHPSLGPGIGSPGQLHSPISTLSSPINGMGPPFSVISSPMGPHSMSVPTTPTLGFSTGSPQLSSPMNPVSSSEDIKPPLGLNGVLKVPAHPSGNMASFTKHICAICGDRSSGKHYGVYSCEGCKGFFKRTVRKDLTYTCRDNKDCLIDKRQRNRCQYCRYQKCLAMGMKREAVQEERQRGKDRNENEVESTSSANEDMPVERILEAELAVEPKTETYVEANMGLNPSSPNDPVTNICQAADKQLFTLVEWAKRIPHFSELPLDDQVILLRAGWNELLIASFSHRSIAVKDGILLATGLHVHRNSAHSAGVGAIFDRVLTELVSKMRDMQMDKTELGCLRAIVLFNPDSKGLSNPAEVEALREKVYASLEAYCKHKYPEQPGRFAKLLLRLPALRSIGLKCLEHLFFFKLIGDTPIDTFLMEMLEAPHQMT
The assay can be described thus: In Vitro FXR Assay (TK): TK-ECRE-luc reporter in transfected CV-1 cells. Particulars: CV-1 cells transfected with hFXR, hRXR, 18 h incubation, luminescence. The class given is cell-based. Put shortly:
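CV-1 cells in charcoal-stripped FBS medium were transiently cotransfected with hFXR, hRXR, TK-ECRE-luc and pCMX-YFP plasmids. After 18 h, compounds serially diluted in DMSO were added for 18 h at 37 °C, 5% CO2, then cells were lysed and luminescence read.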

Assay [2] deals with T1, FXR. The assay can be described thus: In Vitro FXR Assay (PGL3): luciferase reporter in transfected CV-1 cells. The class given is cell-based. The settings on record: CV-1 cells transfected with hFXR, hRXR, PGL3-ECRE*6-luc; 18 h incubation; luminescence. Put shortly:
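CV-1 cells in charcoal-stripped FBS were transiently co-transfected with full-length human FXR, RXR, an ECRE×6-luciferase reporter, β-gal and YFP plasmids. Transfected cells were reseeded onto half-log compound dilutions and incubated 18 h. Luciferase luminescence was read after lysis, and EC50 was determined.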

Each structure is given as a SMILES string. pEC50: −log10 of the molar value.

The compound `COC(=O)/C=C/c1cccc(N(Cc2ccc(-c3cccc(O)c3)cc2)C(=O)C2CCCCC2)c1` [compound 55, (E)-Methyl 3-(3-(N-((3′-hydroxy-[1,1′-biphenyl]-4-yl)methyl)cyclohexanecarboxamido)phenyl) acrylate] showed a pEC50 on FXR [1] of less than 5.00. At FXR [2], the “Cmpd/Fex (ratio of the EC50 for the test compound relative to the EC50 of the Fexaramine control)” value is listed as “+ (‘+’ means Cmpd/Fex > 100)”.
`COC(=O)/C=C/c1cccc(N(Cc2ccc(-c3ccccc3O)cc2)C(=O)C2CCCCC2)c1` [compound 56, (E)-Methyl 3-(3-(N-((2′-hydroxy-[1,1′-biphenyl]-4-yl)methyl)cyclohexanecarboxamido)phenyl) acrylate]: the negative logarithm of the EC50 (pEC50) at FXR [1] was 5.00 to 6.00. For the same compound, the “Cmpd/Fex (ratio of the EC50 for the test compound relative to the EC50 of the Fexaramine control)” value on FXR [2] was “++ (‘++’ means Cmpd/Fex > 10 & < 100)”.
As for `COC(=O)/C=C/c1cccc(N(Cc2ccc(-c3ccc(O)cc3)cc2)C(=O)C2CCCCC2)c1` [compound 57, (E)-Methyl 3-(3-(N-((4′-hydroxy-[1,1′-biphenyl]-4-yl)methyl)cyclohexanecarboxamido)phenyl) acrylate], the pEC50 on FXR [1] was less than 5.00. The “Cmpd/Fex (ratio of the EC50 for the test compound relative to the EC50 of the Fexaramine control)” value on FXR [2] is “+ (‘+’ means Cmpd/Fex > 100)”.
In turn, `COC(=O)/C=C/c1cccc(N(Cc2ccc(-c3ccc(C)c(OC)c3)cc2)C(=O)C2CCCCC2)c1` [compound 58, (E)-Methyl 3-(3-(N-((3′-methoxy-4′-methyl-[1,1′-biphenyl]-4-yl)methyl)cyclohexanecarboxamido)phenyl) acrylate] had a pEC50 on FXR [1] of 5.00 to 6.00. For the same compound, on FXR [2], the “Cmpd/Fex (ratio of the EC50 for the test compound relative to the EC50 of the Fexaramine control)” value was “+++ (‘+++’ means Cmpd/Fex < 10)”.
Take `COC(=O)/C=C/c1cccc(N(Cc2ccc(-c3c(F)cccc3F)cc2)C(=O)C2CCCCC2)c1` [compound 59, (E)-Methyl 3-(3-(N-((2′,6′-difluoro-[1,1′-biphenyl]-4-yl)methyl)cyclohexanecarboxamido)phenyl) acrylate]: at FXR [1], the pEC50 is 5.00 to 6.00. Further, the “Cmpd/Fex (ratio of the EC50 for the test compound relative to the EC50 of the Fexaramine control)” value at FXR [2] is listed as “+ (‘+’ means Cmpd/Fex > 100)”.
At FXR [1], `COC(=O)/C=C/c1cccc(N(Cc2ccc(-c3ccc(N(C)C(=O)OC(C)(C)C)cc3)cc2)C(=O)C2CCCCC2)c1` [compound 60, (E)-Methyl 3-(3-(N-((4′-((tert-butoxycarbonyl)(methyl)amino)-[1,1′-biphenyl]-4-yl)methyl)cyclohexanecarboxamido)phenyl) acrylate] showed a pEC50 of less than 5.00. In addition, the “Cmpd/Fex (ratio of the EC50 for the test compound relative to the EC50 of the Fexaramine control)” value at FXR [2] is on record as “+ (‘+’ means Cmpd/Fex > 100)”.
`CNc1ccc(-c2ccc(CN(C(=O)C3CCCCC3)c3cccc(/C=C/C(=O)OC)c3)cc2)cc1` [compound 61, (E)-Methyl 3-(3-(N-((4′-(methylamino)-[1,1′-biphenyl]-4-yl)methyl)cyclohexanecarboxamido)phenyl) acrylate] showed a pEC50 at FXR [1] of 5.00 to 6.00. In addition, the “Cmpd/Fex (ratio of the EC50 for the test compound relative to the EC50 of the Fexaramine control)” value on FXR [2] is given as “+++ (‘+++’ means Cmpd/Fex < 10)”.
The compound `COC(=O)/C=C/c1cccc(N(Cc2ccc(-c3ccc4c(ccn4C)c3)cc2)C(=O)C2CCCCC2)c1` [compound 62, (E)-Methyl 3-(3-(N-(4-(1-methyl-1H-indol-5-yl)benzyl)cyclohexanecarboxamido)phenyl) acrylate] showed a pEC50 at FXR [1] not below 6.00. Also, the “Cmpd/Fex (ratio of the EC50 for the test compound relative to the EC50 of the Fexaramine control)” value at FXR [2] is listed as “+++ (‘+++’ means Cmpd/Fex < 10)”.
On the same counts, the results for `COC(=O)/C(C)=C/c1cccc(N(Cc2ccc(-c3ccc(N(C)C)cc3)cc2)C(=O)C2CCCCC2)c1` [compound 63, (E)-Methyl 3-(3-(N-((4′-(dimethylamino)-[1,1′-biphenyl]-4-yl)methyl)cyclohexanecarboxamido)phenyl)-2-methylacrylate] are 5.00 to 6.00 and “+++ (‘+++’ means Cmpd/Fex < 10)”.
`COC(=O)/C=C/c1cccc(N(Cc2ccc(-c3ccc(OC)c(C#N)c3)cc2)C(=O)C2CCCCC2)c1` [compound 64, (E)-Methyl 3-(3-(N-((3′-cyano-4′-methoxy-[1,1′-biphenyl]-4-yl)methyl)cyclohexanecarboxamido)phenyl) acrylate] had a pEC50 at FXR [1] not below 6.00. In addition, the “Cmpd/Fex (ratio of the EC50 for the test compound relative to the EC50 of the Fexaramine control)” value on FXR [2] was “+++ (‘+++’ means Cmpd/Fex < 10)”.
`COC(=O)/C=C/c1cccc(N(Cc2ccc(-c3ccccn3)cc2)C(=O)C2CCCCC2)c1` [compound 65, (E)-Methyl 3-(3-(N-(4-(pyridin-2-yl)benzyl)cyclohexanecarboxamido)phenyl) acrylate] showed a pEC50 on FXR [1] of 5.00 to 6.00. The “Cmpd/Fex (ratio of the EC50 for the test compound relative to the EC50 of the Fexaramine control)” value at FXR [2] was “+ (‘+’ means Cmpd/Fex > 100)”.
Turning to `COC(=O)/C=C/c1cccc(N(Cc2ccc(-c3ccccc3C#N)cc2)C(=O)C2CCCCC2)c1` [compound 66, (E)-Methyl 3-(3-(N-((2′-cyano-[1,1′-biphenyl]-4-yl)methyl)cyclohexanecarboxamido)phenyl) acrylate], the pEC50 at FXR [1] was 5.00 to 6.00. For the same compound, the “Cmpd/Fex (ratio of the EC50 for the test compound relative to the EC50 of the Fexaramine control)” value at FXR [2] was “+ (‘+’ means Cmpd/Fex > 100)”.
Consider `COC(=O)/C=C/c1cccc(N(Cc2ccc(-c3nccs3)cc2)C(=O)C2CCCCC2)c1` [compound 67, (E)-Methyl 3-(3-(N-(4-(thiazol-2-yl)benzyl)cyclohexanecarboxamido)phenyl) acrylate], for which the pEC50 at FXR [1] is 5.00 to 6.00. Also, at FXR [2], the “Cmpd/Fex (ratio of the EC50 for the test compound relative to the EC50 of the Fexaramine control)” value was “+ (‘+’ means Cmpd/Fex > 100)”.
At FXR [1], `COC(=O)/C=C/c1cccc(N(Cc2ccc(-c3cscn3)cc2)C(=O)C2CCCCC2)c1` [compound 68, (E)-Methyl 3-(3-(N-(4-(thiazol-4-yl)benzyl)cyclohexanecarboxamido)phenyl) acrylate] gave a pEC50 of 5.00 to 6.00. Also, the “Cmpd/Fex (ratio of the EC50 for the test compound relative to the EC50 of the Fexaramine control)” value at FXR [2] is recorded as “+ (‘+’ means Cmpd/Fex > 100)”.
On FXR [1], `COC(=O)/C=C/c1cccc(N(Cc2ccc(-c3cncs3)cc2)C(=O)C2CCCCC2)c1` [compound 69, (E)-Methyl 3-(3-(N-(4-(thiazol-5-yl)benzyl)cyclohexanecarboxamido)phenyl) acrylate] had a pEC50 of 5.00 to 6.00. In addition, the “Cmpd/Fex (ratio of the EC50 for the test compound relative to the EC50 of the Fexaramine control)” value on FXR [2] is on record as “+ (‘+’ means Cmpd/Fex > 100)”.
With `COC(=O)/C=C/c1cccc(N(Cc2ccc(-c3ccc(C(C)C)cc3)cc2)C(=O)C2CCCCC2)c1` [compound 70, (E)-Methyl 3-(3-(N-((4′-isopropyl-[1,1′-biphenyl]-4-yl)methyl)cyclohexanecarboxamido)phenyl) acrylate], the pEC50 on FXR [1] was 5.00 to 6.00. Moreover, the “Cmpd/Fex (ratio of the EC50 for the test compound relative to the EC50 of the Fexaramine control)” value on FXR [2] is recorded as “+++ (‘+++’ means Cmpd/Fex < 10)”.
As to `C=C(C)c1ccc(-c2ccc(CN(C(=O)C3CCCCC3)c3cccc(/C=C/C(=O)OC)c3)cc2)cc1` [compound 71, (E)-Methyl 3-(3-(N-((4′-(prop-1-en-2-yl)-[1,1′-biphenyl]-4-yl)methyl)cyclohexanecarboxamido)phenyl) acrylate], the pEC50 on FXR [1] was 5.00 to 6.00. Also, the “Cmpd/Fex (ratio of the EC50 for the test compound relative to the EC50 of the Fexaramine control)” value at FXR [2] was “+++ (‘+++’ means Cmpd/Fex < 10)”.
With `COC(=O)/C=C/c1cccc(N(Cc2ccc(-c3ccc(N(C)C)c(C#N)c3)cc2)C(=O)C2CCCCC2)c1` [compound 72, (E)-Methyl 3-(3-(N-((3′-cyano-4′-(dimethylamino)-[1,1′-biphenyl]-4-yl)methyl)cyclohexanecarboxamido)phenyl) acrylate], on FXR [1], the pEC50 is not below 6.00. In addition, the “Cmpd/Fex (ratio of the EC50 for the test compound relative to the EC50 of the Fexaramine control)” value on FXR [2] is “+++ (‘+++’ means Cmpd/Fex < 10)”.
`COC(=O)/C=C/c1cccc(N(Cc2ccc(-c3ccc(N(C)C)c(F)c3)cc2)C(=O)C2CCCCC2)c1` [compound 73, (E)-Methyl 3-(3-(N-((4′-(dimethylamino)-3′-fluoro-[1,1′-biphenyl]-4-yl)methyl)cyclohexanecarboxamido)phenyl) acrylate] had a pEC50 on FXR [1] not below 6.00. Moreover, at FXR [2], the “Cmpd/Fex (ratio of the EC50 for the test compound relative to the EC50 of the Fexaramine control)” value is “+++ (‘+++’ means Cmpd/Fex < 10)”.
Take `COC(=O)/C=C/c1cccc(N(Cc2ccc(-c3ccc4c(c3)ncn4C)cc2)C(=O)C2CCCCC2)c1` [compound 74, (E)-Methyl 3-(3-(N-(4-(1-methyl-1H-benzo[d]imidazol-5-yl)benzyl)cyclohexanecarboxamido)phenyl) acrylate]: at FXR [1], the pEC50 was 5.00 to 6.00. Also, the “Cmpd/Fex (ratio of the EC50 for the test compound relative to the EC50 of the Fexaramine control)” value on FXR [2] is “+ (‘+’ means Cmpd/Fex > 100)”.
